Source: ChEMBL document CHEMBL1159027, “Microcolins A and B, new immunosuppressive peptides from the blue-green alga Lyngbya majuscula” (J Nat Prod, 1992)

What was measured:
Lymphocyte = assay: Immunosuppressive activity in mouse lymphocyte assessed as suppression of two-way mixed reaction; type: functional, cell-based
[1] = Toxicity in mouse lymphocytes; type: cell-based, Lymphocyte; conditions: read-out: TC50 (the source's name)

| Compound | EC50 (Lymphocyte) [nM] | CC50 [1] [nM] |
| --- | --- | --- |
| CCCC[C@@H](C)C[C@@H](C)C(=O)N(C)[C@@H](CC(C)C)C(=O)N[C@H](C(=O)N(C)[C@H](C(=O)N1C[C@@H](O)C[C@H]1C(=O)N1C(=O)C=C[C@@H]1C)C(C)C)[C@H](C)OC(C)=O [MICROCOLIN A] | 1.5 | 22.6 |
| CCCC[C@@H](C)C[C@@H](C)C(=O)N(C)[C@@H](CC(C)C)C(=O)N[C@H](C(=O)N(C)[C@H](C(=O)N1CCC[C@H]1C(=O)N1C(=O)C=C[C@@H]1C)C(C)C)[C@H](C)OC(C)=O [MICROCOLIN B] | 42.7 | 191 |
